Results from ChEMBL document CHEMBL5247609, “Novel nitric oxide-releasing derivatives of pyranocarbazole as antitumor agents: Design, synthesis, biological evaluation, and nitric oxide release studies” (Eur J Med Chem, 2022).
Calls of active or inactive are those of the source. No cut-off for these calls is given here.

Tests used:
MDA-MB-231 [1] = test: Induction of apoptosis in human MDA-MB-231 cells assessed as early apoptotic cells measured at 0.5 uM after 48 hrs by FITC-Annexin-V and propidium iodide based flow cytometric analysis (reference value: 2.71%); assay type: functional
MDA-MB-231 [2] = test: Induction of apoptosis in human MDA-MB-231 cells assessed as late apoptotic cells measured at 2 uM after 48 hrs by FITC-Annexin-V and propidium iodide based flow cytometric analysis (reference value: 2.68%); assay type: functional
MDA-MB-231 [3] = test: Antiproliferative activity against human MDA-MB-231 cells assessed as decrease in number of colony formation at 0.25 uM measured after 14 days by crystal violet staining based analysis; assay type: functional, cell-based; conditions: time 14.0 day
MDA-MB-231 [4] = test: Induction of apoptosis in human MDA-MB-231 cells assessed as increase in cleaved PARP expression at 0.5 to 2 uM by Western blotting analysis; assay type: functional, cell-based; conditions: dose 0.5-2 µM
MX1 [5] = test: Induction of apoptosis in human MX1 cells assessed as downregulation of Bcl-2 by Western blotting analysis; assay type: functional, cell-based; conditions: dose 0.5-2 µM
MDA-MB-231 [6] = test: Antitumor activity against human MDA-MB-231 cells xenografted in BALBC mouse assessed as inhibition of tumor growth at 75 mg/kg, IG administered every 3 days for 21 days relative to control; assay type: functional; conditions: MDA-MB-231, po, 504 h, time 21 day, read-out: TGI
MX1 [7] = test: Induction of cell cycle arrest in human MX-1 cells assessed as accumulation of cells at G0/G1 phase incubated for 24 hrs by propidium iodide staining based FACS calibur flow cytometeric analysis; assay type: functional; conditions: dose 0.5-2 µM
MDA-MB-231 [8] = test: Induction of apoptosis in human MDA-MB-231 cells assessed as early apoptotic cells measured at 5 uM after 48 hrs by FITC-Annexin-V and propidium iodide based flow cytometric analysis (reference value: 2.71%); assay type: functional
MX1 [9] = test: Induction of cell cycle arrest in human MX1 cells assessed as increase in CDK6 expression at 0.5 to 2 uM by Western blotting analysis; assay type: functional, cell-based; conditions: dose 0.5-2 µM, time 24.0 hrs
MDA-MB-231 [10] = test: Antiproliferative activity against human MDA-MB-231 cells assessed as reduction in cell viability after 96 hrs by MTT assay; assay type: functional, cell-based; conditions: MDA-MB-231, 96 h
MDA-MB-231 [11] = test: Induction of apoptosis in human MDA-MB-231 cells assessed as late apoptotic cells measured at 1 uM after 48 hrs by FITC-Annexin-V and propidium iodide based flow cytometric analysis (reference value: 2.68%); assay type: functional
EMT6 = test: Antitumor activity against mouse EMT6 cells allografted in BALBC mouse a assessed as reduction in tumor growth inhibition at 150 mg/kg, IG administered every 3 days for 21 days relative to control; assay type: functional; conditions: EMT6, po, 504 h, time 21 day, read-out: TGI
MX1 [12] = test: Induction of apoptosis in human MX1 cells assessed as viable cells measured at 2 uM after 48 hrs by FITC-Annexin-V and propidium iodide based flow cytometric analysis (reference value: 88.4%); assay type: functional; conditions: read-out: Activity
MX1 [13] = test: Induction of apoptosis in human MX1 cells assessed as early apoptotic cells measured at 1 uM after 48 hrs by FITC-Annexin-V and propidium iodide based flow cytometric analysis (reference value: 6.30%); assay type: functional
MX1 [14] = test: Induction of apoptosis in human MX1 cells assessed as necrotic cells measured at 0.5 uM after 48 hrs by FITC-Annexin-V and propidium iodide based flow cytometric analysis (reference value: 0.055 %); assay type: functional
MX1 [15] = test: Induction of apoptosis in human MX1 cells assessed as viable cells measured at 0.5 uM after 48 hrs by FITC-Annexin-V and propidium iodide based flow cytometric analysis (reference value: 88.4%); assay type: functional; conditions: read-out: Activity
MX1 [16] = test: Induction of apoptosis in human MX1 cells assessed as late apoptotic cells measured at 1 uM after 48 hrs by FITC-Annexin-V and propidium iodide based flow cytometric analysis (reference value: 5.24%); assay type: functional
MX1 [17] = test: Induction of apoptosis in human MX1 cells assessed as total apoptotic cells measured at 5 uM after 48 hrs by FITC-Annexin-V and propidium iodide based flow cytometric analysis (reference value: 16.36%); assay type: functional
MX1 [18] = test: Induction of apoptosis in human MX1 cells assessed as increase in cleaved PARP-1 expression at 0.5 to 2 uM by Western blotting analysis; assay type: functional, cell-based; conditions: dose 0.5-2 µM
MX1 [19] = test: Induction of morphological changes in human MX1 cells assessed as decrease in cell size at 0.5 to 2 uM measured after 24 hrs by bright field inverted microscopic analysis; assay type: functional, cell-based; conditions: dose 0.5-2 µM
MDA-MB-231 [20] = test: Induction of apoptosis in human MDA-MB-231 cells assessed as viable cells measured at 2 uM after 48 hrs by FITC-Annexin-V and propidium iodide based flow cytometric analysis (reference value: 94.4% ); assay type: functional; conditions: read-out: Activity
MDA-MB-231 [21] = test: Induction of morphological changes in human MDA-MB-231 cells at 0.5 to 2 uM measured after 24 hrs by bright field inverted microscopic analysis; assay type: functional, cell-based; conditions: dose 0.5-2 µM
MX1 [22] = test: Inhibition of PI3K/Akt signaling in human MX1 cells assessed as decrease in phosphorylated S6 expression incubated for 24 hrs by Western blotting analysis; assay type: cell-based; conditions: dose 0.5-5 µM
MDA-MB-231 [23] = test: Induction of apoptosis in human MDA-MB-231 cells assessed as early apoptotic cells measured at 1 uM after 48 hrs by FITC-Annexin-V and propidium iodide based flow cytometric analysis (reference value: 2.71%); assay type: functional
MX1 [24] = test: Induction of apoptosis in human MX1 cells assessed as necrotic cells measured at 1 uM after 48 hrs by FITC-Annexin-V and propidium iodide based flow cytometric analysis (reference value: 0.055 %); assay type: functional
MDA-MB-231 [25] = test: Induction of morphological changes in human MDA-MB-231 cells assessed as decrease in cell size at 0.5 to 2 uM measured after 24 hrs by bright field inverted microscopic analysis; assay type: functional, cell-based; conditions: dose 0.5-2 µM
MX1 [26] = test: Induction of apoptosis in human MX1 cells assessed as necrotic cells measured at 2 uM after 48 hrs by FITC-Annexin-V and propidium iodide based flow cytometric analysis (reference value: 0.055 %); assay type: functional
MDA-MB-231 [27] = test: Induction of cell cycle arrest in human MDA-MB-231 cells assessed as increase in CDK6 expression at 0.5 to 2 uM by Western blotting analysis; assay type: functional, cell-based; conditions: dose 0.5-2 µM, time 24.0 hrs
MX1 [28] = test: Induction of apoptosis in human MX1 cells assessed as necrotic cells measured at 5 uM after 48 hrs by FITC-Annexin-V and propidium iodide based flow cytometric analysis (reference value: 0.055 %); assay type: functional
MDA-MB-231 [29] = test: Induction of apoptosis in human MDA-MB-231 cells assessed as downregulation of Bcl-2 by Western blotting analysis; assay type: functional, cell-based; conditions: dose 0.5-2 µM
MX1 [30] = test: Induction of apoptosis in human MX1 cells assessed as late apoptotic cells measured at 5 uM after 48 hrs by FITC-Annexin-V and propidium iodide based flow cytometric analysis (reference value: 5.24%); assay type: functional
MX1 [31] = test: Induction of apoptosis in human MX1 cells assessed as viable cells measured at 5 uM after 48 hrs by FITC-Annexin-V and propidium iodide based flow cytometric analysis (reference value: 88.4%); assay type: functional; conditions: read-out: Activity
MDA-MB-231 [32] = test: Induction of apoptosis in human MDA-MB-231 cells assessed as late apoptotic cells measured at 5 uM after 48 hrs by FITC-Annexin-V and propidium iodide based flow cytometric analysis (reference value: 2.68%); assay type: functional

CC1(C)C=Cc2c(c(/C=C/C(=O)NCCOc3no[n+]([O-])c3S(=O)(=O)c3ccccc3)cc3c2[nH]c2ccc(C(C)(C)C)cc23)O1
Activity (MDA-MB-231 [1]): 3.12%
Activity (MDA-MB-231 [2]): 12.8%
Activity (MDA-MB-231 [3]): Active
Activity (MDA-MB-231 [4]): Active
Activity (MX1 [5]): Dose-Dependent Effect
inhibition in vivo at 75 mg/kg (MDA-MB-231 [6]): 30%
Activity (MX1 [7]): Dose-Dependent Effect
Activity (MDA-MB-231 [8]): 31.2%
Activity (MX1 [9]): Active
IC50 (MDA-MB-231 [10]): 50 nM
Activity (MDA-MB-231 [11]): 4.85%
inhibition in vivo at 150 mg/kg (EMT6): 50.1%
viability at 2 µM (MX1 [12]): 11.9%
Activity (MX1 [13]): 48.2%
Activity (MX1 [14]): 0.202%
viability at 0.5 µM (MX1 [15]): 54.8%
Activity (MX1 [16]): 8.1%
Activity (MX1 [17]): 87.2%
Activity (MX1 [18]): Active
Activity (MX1 [19]): Active
viability at 2 µM (MDA-MB-231 [20]): 75.9%
Activity (MDA-MB-231 [21]): Active
inhibition (MX1 [22]): Dose-Dependent Effect
Activity (MDA-MB-231 [23]): 3.76%
Activity (MX1 [24]): 0.193%
Activity (MDA-MB-231 [25]): Active
Activity (MX1 [26]): 0.043%
Activity (MDA-MB-231 [27]): Active
Activity (MX1 [28]): 0.276%
Activity (MDA-MB-231 [29]): Dose-Dependent Effect
Activity (MX1 [30]): 14.5%
viability at 5 µM (MX1 [31]): 27.5%
Activity (MDA-MB-231 [32]): 20.8%
